Laboratory results from patent publication US20060235076A1, “Medicinal composition for treating infection with drug-resistant staphylococcus aureus” (priority 2003, published 2006).
In brackets after ≈: the same amount, converted by molar mass. Like-named read-outs stand apart in the source and are kept apart here.

What was measured:
[1] = system: MRSA COL and MRSA Strain No. 5; assay: Potentiating effect of various gallates for antibacterial activity of oxacillin (MIC by broth microdilution method and FIC); format: cell-based, Staphylococcus aureus; conditions: for FIC value: combination with oxacillin
Protocol: According to the broth microdilution method defined by Japan Society of Chemotherapy, MIC was determined. CAMHA was prepared by adding 50 mg/l of Ca-ion, 25 mg/l of Mg-ion, and 2% of NaCl to MHB (Mueller-Hinton Broth), and it was used as a medium for use in the measurement of sensitivity. In 96-well microplates 100 μl of the medium for use in the measurement of sensitivity containing drugs was dispensed. The bacterial liquid was incubated at 37° C. overnight, diluted with saline and added to the plate so that the final concentration of the bacteria was 5×10^5 CFU/well. […] FIC (fractional inhibitory concentration) was calculated from the result and the potency of the effect of the combination use was evaluated.

MRSA and MSSA = assay: Antibacterial activity of gallic acid, various gallates and multivalent phenol derivatives alone (agar plate dilution method, MIC); format: cell-based, Staphylococcus aureus; conditions: Staphylococcus aureus
Protocol: According to the agar plate dilution method defined by Japan Society of Chemotherapy, MIC (Minimum inhibitory concentration) was determined. CAMHA was prepared by adding 50 mg/l of Ca-ion, 25 mg/l of Mg-ion, and 2% of NaCl to Mueller-Hinton II Agar (MHA), and it was used as a medium for use in the measurement of sensitivity. The bacterial liquid was incubated at 37° C. overnight and diluted to 10^6 CFU/ml with saline.
MIC for gallic acid, various gallates and multivalent phenol derivatives alone with MRSA and MSSA were determined as described in experiment 2.

[2] = MSSA #1003, read-out: MIC alone
[3] = MSSA #1010, read-out: MIC alone
[4] = MSSA #1020, read-out: MIC alone
[5] = MSSA #1023, read-out: MIC alone
[6] = MSSA #1029, read-out: MIC alone
[7] = MSSA #1032, read-out: MIC alone

## CCOC(=O)c1cc(O)c(O)c(O)c1 [Ethyl gallate, ethyl gallate]
[1]; MRSA COL
  FIC value: 0.125
[1]; MRSA Strain No. 5
  FIC value: 0.156
MRSA and MSSA
  MIC50: 125 µg/mL (≈ 631 µM)
MRSA and MSSA; ATCC 6538 / MRSA / MSSA, read-out: MIC alone
  MIC: 125 µg/mL (≈ 631 µM)
MRSA and MSSA; COL, read-out: MIC alone
  MIC: 125 µg/mL (≈ 631 µM)
MRSA and MSSA; MRSA #1, read-out: MIC alone
  MIC: 125 µg/mL (≈ 631 µM)
MRSA and MSSA; MRSA #2, read-out: MIC alone
  MIC: 62.5 µg/mL (≈ 315 µM)
MRSA and MSSA; MRSA #3, read-out: MIC alone
  MIC: 125 µg/mL (≈ 631 µM)
MRSA and MSSA; MRSA #4, read-out: MIC alone
  MIC: 62.5 µg/mL (≈ 315 µM)
MRSA and MSSA; MRSA #5, read-out: MIC alone
  MIC: 125 µg/mL (≈ 631 µM)
MRSA and MSSA; MRSA #6, read-out: MIC alone
  MIC: 62.5 µg/mL (≈ 315 µM)
MRSA and MSSA; MRSA #7, read-out: MIC alone
  MIC: 125 µg/mL (≈ 631 µM)
MRSA and MSSA; MRSA #8, read-out: MIC alone
  MIC: 125 µg/mL (≈ 631 µM)
MRSA and MSSA; MRSA #9, read-out: MIC alone
  MIC: 62.5 µg/mL (≈ 315 µM)
MRSA and MSSA; MRSA #10, read-out: MIC alone
  MIC: 62.5 µg/mL (≈ 315 µM)
MRSA and MSSA; MRSA #12, read-out: MIC alone
  MIC: 125 µg/mL (≈ 631 µM)
MRSA and MSSA; MRSA #16, read-out: MIC alone
  MIC: 125 µg/mL (≈ 631 µM)
MRSA and MSSA; MRSA #17, read-out: MIC alone
  MIC: 62.5 µg/mL (≈ 315 µM)
MRSA and MSSA; MRSA #18, read-out: MIC alone
  MIC: 62.5 µg/mL (≈ 315 µM)
MRSA and MSSA; MRSA #20, read-out: MIC alone
  MIC: 125 µg/mL (≈ 631 µM)
MRSA and MSSA; MRSA #21, read-out: MIC alone
  MIC: 125 µg/mL (≈ 631 µM)
MRSA and MSSA; MRSA #22, read-out: MIC alone
  MIC: 125 µg/mL (≈ 631 µM)
MRSA and MSSA; MRSA #24, read-out: MIC alone
  MIC: 125 µg/mL (≈ 631 µM)
MRSA and MSSA; [2]
  MIC: 125 µg/mL (≈ 631 µM)
MRSA and MSSA; [3]
  MIC: 125 µg/mL (≈ 631 µM)
MRSA and MSSA; [4]
  MIC: 125 µg/mL (≈ 631 µM)
MRSA and MSSA; [5]
  MIC: 62.5 µg/mL (≈ 315 µM)
MRSA and MSSA; [6]
  MIC: 62.5 µg/mL (≈ 315 µM)
MRSA and MSSA; [7]
  MIC: 125 µg/mL (≈ 631 µM)

## CCCCOC(=O)c1cc(O)c(O)c(O)c1 [Butyl gallate, n-butyl gallate]
[1]; COL Strain and Strain No. 5
  effect of the combination use with oxacillin by FIC values: most potent effect of the combination use
[1]; MRSA COL
  FIC value: 0.129
[1]; MRSA Strain No. 5
  FIC value: 0.254
MRSA and MSSA; ATCC 6538 / MRSA / MSSA, ATCC6538, read-out: MIC alone
  MIC: 125 µg/mL (≈ 553 µM)
MRSA and MSSA; COL, read-out: MIC alone
  MIC: 125 µg/mL (≈ 553 µM)
MRSA and MSSA; MRSA #1, read-out: MIC alone
  MIC: 125 µg/mL (≈ 553 µM)
MRSA and MSSA; MRSA #2, read-out: MIC alone
  MIC: 125 µg/mL (≈ 553 µM)
MRSA and MSSA; MRSA #3, read-out: MIC alone
  MIC: 125 µg/mL (≈ 553 µM)
MRSA and MSSA; MRSA #4, read-out: MIC alone
  MIC: 125 µg/mL (≈ 553 µM)
MRSA and MSSA; MRSA #5, read-out: MIC alone
  MIC: 125 µg/mL (≈ 553 µM)
MRSA and MSSA; MRSA #6, read-out: MIC alone
  MIC: 62.5 µg/mL (≈ 276 µM)
MRSA and MSSA; MRSA #7, read-out: MIC alone
  MIC: 125 µg/mL (≈ 553 µM)
MRSA and MSSA; MRSA #8, read-out: MIC alone
  MIC: 125 µg/mL (≈ 553 µM)
MRSA and MSSA; MRSA #9, read-out: MIC alone
  MIC: 62.5 µg/mL (≈ 276 µM)
MRSA and MSSA; MRSA #10, read-out: MIC alone
  MIC: 62.5 µg/mL (≈ 276 µM)
MRSA and MSSA; MRSA #12, read-out: MIC alone
  MIC: 125 µg/mL (≈ 553 µM)
MRSA and MSSA; MRSA #16, read-out: MIC alone
  MIC: 125 µg/mL (≈ 553 µM)
MRSA and MSSA; MRSA #17, read-out: MIC alone
  MIC: 125 µg/mL (≈ 553 µM)
MRSA and MSSA; MRSA #18, read-out: MIC alone
  MIC: 125 µg/mL (≈ 553 µM)
MRSA and MSSA; MRSA #20, read-out: MIC alone
  MIC: 125 µg/mL (≈ 553 µM)
MRSA and MSSA; MRSA #21, read-out: MIC alone
  MIC: 125 µg/mL (≈ 553 µM)
MRSA and MSSA; MRSA #22, read-out: MIC alone
  MIC: 125 µg/mL (≈ 553 µM)
MRSA and MSSA; MRSA #24, read-out: MIC alone
  MIC: 125 µg/mL (≈ 553 µM)
MRSA and MSSA; [2]
  MIC: 125 µg/mL (≈ 553 µM)
MRSA and MSSA; [3]
  MIC: 125 µg/mL (≈ 553 µM)
MRSA and MSSA; [4]
  MIC: 125 µg/mL (≈ 553 µM)
MRSA and MSSA; [5]
  MIC: 125 µg/mL (≈ 553 µM)
MRSA and MSSA; [6]
  MIC: 62.5 µg/mL (≈ 276 µM)
MRSA and MSSA; [7]
  MIC: 125 µg/mL (≈ 553 µM)
MRSA and MSSA; compound alone, over all strains of Table 3-1, read-out: MIC50
  MIC50: 125 µg/mL (≈ 553 µM)

## CCCCCCCCCCCOC(=O)c1cc(O)c(O)c(O)c1 [Undecyl gallate, n-undecyl gallate]
[1]; COL Strain and Strain No. 5
  antibacterial activity when used alone: most potent
[1]; MRSA COL
  FIC value: 0.313
[1]; MRSA Strain No. 5
  FIC value: 0.251
MRSA and MSSA
  MIC50: 31.3 µg/mL (≈ 96.5 µM)
MRSA and MSSA; ATCC 6538 / MRSA / MSSA
  MIC: 31.3 µg/mL (≈ 96.5 µM)
MRSA and MSSA; COL, compound alone, read-out: MIC
  MIC: 31.3 µg/mL (≈ 96.5 µM)
MRSA and MSSA; MRSA #1, compound alone, read-out: MIC
  MIC: 31.3 µg/mL (≈ 96.5 µM)
MRSA and MSSA; MRSA #2, compound alone, read-out: MIC
  MIC: 31.3 µg/mL (≈ 96.5 µM)
MRSA and MSSA; MRSA #3, compound alone, read-out: MIC
  MIC: 31.3 µg/mL (≈ 96.5 µM)
MRSA and MSSA; MRSA #4, compound alone, read-out: MIC
  MIC: 31.3 µg/mL (≈ 96.5 µM)
MRSA and MSSA; MRSA #5, compound alone, read-out: MIC
  MIC: 31.3 µg/mL (≈ 96.5 µM)
MRSA and MSSA; MRSA #6, compound alone, read-out: MIC
  MIC: 31.3 µg/mL (≈ 96.5 µM)
MRSA and MSSA; MRSA #7, compound alone, read-out: MIC
  MIC: 31.3 µg/mL (≈ 96.5 µM)
MRSA and MSSA; MRSA #8, compound alone, read-out: MIC
  MIC: 31.3 µg/mL (≈ 96.5 µM)
MRSA and MSSA; MRSA #9, compound alone, read-out: MIC
  MIC: 31.3 µg/mL (≈ 96.5 µM)
MRSA and MSSA; MRSA #10, compound alone, read-out: MIC
  MIC: 31.3 µg/mL (≈ 96.5 µM)
MRSA and MSSA; MRSA #12, compound alone, read-out: MIC
  MIC: 31.3 µg/mL (≈ 96.5 µM)
MRSA and MSSA; MRSA #16, compound alone, read-out: MIC
  MIC: 31.3 µg/mL (≈ 96.5 µM)
MRSA and MSSA; MRSA #17, compound alone, read-out: MIC
  MIC: 31.3 µg/mL (≈ 96.5 µM)
MRSA and MSSA; MRSA #18, compound alone, read-out: MIC
  MIC: 31.3 µg/mL (≈ 96.5 µM)
MRSA and MSSA; MRSA #20, compound alone, read-out: MIC
  MIC: 31.3 µg/mL (≈ 96.5 µM)
MRSA and MSSA; MRSA #21, compound alone, read-out: MIC
  MIC: 31.3 µg/mL (≈ 96.5 µM)
MRSA and MSSA; MRSA #22, compound alone, read-out: MIC
  MIC: 31.3 µg/mL (≈ 96.5 µM)
MRSA and MSSA; MRSA #24, compound alone, read-out: MIC
  MIC: 31.3 µg/mL (≈ 96.5 µM)
MRSA and MSSA; MSSA #1003, compound alone, read-out: MIC
  MIC: 31.3 µg/mL (≈ 96.5 µM)
MRSA and MSSA; MSSA #1010, compound alone, read-out: MIC
  MIC: 31.3 µg/mL (≈ 96.5 µM)
MRSA and MSSA; MSSA #1020, compound alone, read-out: MIC
  MIC: 31.3 µg/mL (≈ 96.5 µM)
MRSA and MSSA; MSSA #1023, compound alone, read-out: MIC
  MIC: 31.3 µg/mL (≈ 96.5 µM)
MRSA and MSSA; MSSA #1029, compound alone, read-out: MIC
  MIC: 31.3 µg/mL (≈ 96.5 µM)
MRSA and MSSA; MSSA #1032, compound alone, read-out: MIC
  MIC: 31.3 µg/mL (≈ 96.5 µM)
